In ChEMBL document CHEMBL1201862, “PubChem BioAssay data set” (2004):
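All cell lines were grown in 96-well plates and treated with compound for 48 hours. GI50 = concentration required for 50% inhibition of growth.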 Calls of active or inactive are those of the source. Rule as the data show it: active = GI50 up to about 1.1 µM and inactive = higher.

Tests used:
Assay in all cases: NCI-60 cell line screen, 48 h
M14 = tested on: M14
OVCAR-3 = tested on: OVCAR-3
SNB-19 = tested on: SNB-19
MDA-MB-231 = tested on: MDA-MB-231
OVCAR-8 = tested on: OVCAR-8
EKVX = tested on: EKVX
DU-145 = tested on: DU-145
SF-295 = tested on: SF-295
UO-31 = tested on: UO-31
HOP-62 = tested on: HOP-62
SN12C = tested on: SN12C
TK-10 = tested on: TK-10
SW-620 = tested on: SW-620
OVCAR-4 = tested on: OVCAR-4
RPMI-8226 = tested on: RPMI-8226
SF-539 = tested on: SF-539
HT-29 = tested on: HT-29
NCI-H460 = tested on: NCI-H460
MDA-N = tested on: MDA-N
NCI-H226 = tested on: NCI-H226

SMILES | GI50 (M14) | GI50 (OVCAR-3) | GI50 (SNB-19) | GI50 (MDA-MB-231) | GI50 (OVCAR-8) | GI50 (EKVX) | GI50 (DU-145) | GI50 (SF-295) | GI50 (UO-31) | GI50 (HOP-62) | GI50 (SN12C) | GI50 (TK-10) | GI50 (SW-620) | GI50 (OVCAR-4) | GI50 (RPMI-8226) | GI50 (SF-539) | GI50 (HT-29) | GI50 (NCI-H460) | GI50 (MDA-N) | GI50 (NCI-H226)
CC[N+]1(C)CCC(O)(/C=C/c2ccc(Cl)cc2)C(C(=O)/C=C/c2ccc(Cl)cc2)C1 (centres undefined) | > 19.9 µM (inactive) | 11.5 µM (inactive) | 4.46 µM (inactive) | 4.81 µM (inactive) | 4.59 µM (inactive) | 18.8 µM (inactive) | 12.1 µM (inactive) | 16.2 µM (inactive) | 6.58 µM (inactive) | 14.8 µM (inactive) | 7.11 µM (inactive) | 3.51 µM (inactive) | 2.56 µM (inactive) | 28.4 µM (inactive) | 0.327 µM (active) | 2.35 µM (inactive) | 3.08 µM (inactive) | 4.48 µM (inactive) | 3.45 µM (inactive) | 
CC(C)C1OC(N)=C(C#N)C1(C#N)C#N (centres undefined) | 60.7 µM (inactive) |  | 46.8 µM (inactive) | > 100 µM (inactive) | 41.9 µM (inactive) | 62.2 µM (inactive) | 51.3 µM (inactive) | > 100 µM (inactive) | 33.1 µM (inactive) | 44.4 µM (inactive) | 69.7 µM (inactive) | 83.4 µM (inactive) | 14.3 µM (inactive) |  | 29 µM (inactive) | 44.7 µM (inactive) | 38.1 µM (inactive) |  | 38.2 µM (inactive) | > 100 µM (inactive)
O=C1/C(=C/c2ccccc2S)N=C(c2ccccc2)N1c1nc2ccc(Sc3ccccc3)cc2[nH]1 | 20.4 µM (inactive) | 21.6 µM (inactive) | 45.3 µM (inactive) | 26.1 µM (inactive) | 34.5 µM (inactive) | 46.6 µM (inactive) | 34.9 µM (inactive) | 27.4 µM (inactive) | 36.3 µM (inactive) | 41.9 µM (inactive) | 26.4 µM (inactive) | 27 µM (inactive) | 29.9 µM (inactive) | 35.2 µM (inactive) | 23.9 µM (inactive) |  | 20.2 µM (inactive) | 21.9 µM (inactive) | 14.7 µM (inactive) | 
Cc1cc(-c2ccc(Cl)cc2)c(C#N)c(=S)n1C1OC(CO)C(O)C(O)C1O (centres undefined) | > 100 µM (inactive) | > 100 µM (inactive) | > 100 µM (inactive) | > 100 µM (inactive) | > 100 µM (inactive) | > 100 µM (inactive) | > 100 µM (inactive) | > 100 µM (inactive) |  | > 100 µM (inactive) | > 100 µM (inactive) | > 100 µM (inactive) | > 100 µM (inactive) | > 100 µM (inactive) |  | > 100 µM (inactive) | > 100 µM (inactive) | > 100 µM (inactive) | > 100 µM (inactive) | > 100 µM (inactive)
O=C(NCCNCCO)N/N=C/c1ccc([N+](=O)[O-])cc1 | > 100 µM (inactive) | > 100 µM (inactive) | > 100 µM (inactive) | > 100 µM (inactive) | > 100 µM (inactive) |  | > 100 µM (inactive) | > 100 µM (inactive) | > 100 µM (inactive) | > 100 µM (inactive) | > 100 µM (inactive) | 90.8 µM (inactive) | > 100 µM (inactive) |  |  | > 100 µM (inactive) | > 100 µM (inactive) | > 100 µM (inactive) | 61.4 µM (inactive) | > 100 µM (inactive)
CN(C)CCNC(=O)c1cccc2c(NC(CCCNC(=N)N)C(=O)O)c3ccccc3nc12 (centres undefined) | 14 µM (inactive) | 18.1 µM (inactive) | 3.94 µM (inactive) | 9.27 µM (inactive) | 4.13 µM (inactive) | 3.48 µM (inactive) | 17 µM (inactive) | 7.57 µM (inactive) | 2.82 µM (inactive) | 9.73 µM (inactive) | 10.5 µM (inactive) | 21.1 µM (inactive) | 5.4 µM (inactive) | 5.09 µM (inactive) | 6.59 µM (inactive) |  | 2.7 µM (inactive) |  | 14 µM (inactive) | 3.88 µM (inactive)
CC(=O)OC(=C(C#N)C#N)c1nccnc1C(C)=O | 4.8 µM (inactive) | 14.6 µM (inactive) | > 20 µM (inactive) | > 20 µM (inactive) | > 20 µM (inactive) | > 20 µM (inactive) | > 20 µM (inactive) | 10.9 µM (inactive) | > 20 µM (inactive) |  | > 20 µM (inactive) |  | > 20 µM (inactive) | > 20 µM (inactive) |  | 7.24 µM (inactive) | 4.2 µM (inactive) | 7.83 µM (inactive) | 6.17 µM (inactive) | 6.01 µM (inactive)
CCn1c(-c2ccc(/N=N/Nc3ccc(-c4n[nH]c(=S)n4CC)cc3)cc2)n[nH]c1=S | 2.65 µM (inactive) | 2.26 µM (inactive) | 2.55 µM (inactive) | 4.2 µM (inactive) | 2.28 µM (inactive) | 2.41 µM (inactive) | 2.87 µM (inactive) | 2.46 µM (inactive) | 2.33 µM (inactive) | 2.74 µM (inactive) | 3.02 µM (inactive) | 4.92 µM (inactive) | 4.8 µM (inactive) | 1.97 µM (inactive) | 1.92 µM (inactive) |  | 3.55 µM (inactive) |  | 3.19 µM (inactive) | 2.24 µM (inactive)
Oc1ccc(-c2nc(-c3cccnc3)c(-c3ccc(Cl)cc3)[nH]2)cc1O | 13.6 µM (inactive) | 3.43 µM (inactive) | 13 µM (inactive) | 17.3 µM (inactive) | 11.9 µM (inactive) | 18 µM (inactive) | 22 µM (inactive) | 16.2 µM (inactive) | 12.8 µM (inactive) | 12.4 µM (inactive) | 13.2 µM (inactive) | 10.4 µM (inactive) | 12.4 µM (inactive) | 16.1 µM (inactive) | > 100 µM (inactive) |  | 14.6 µM (inactive) |  | 11.7 µM (inactive) | 16.2 µM (inactive)
O=C1NC(N2CCCC(CO)C2)=N/C1=C\c1ccccc1 (centres undefined) | > 100 µM (inactive) | > 100 µM (inactive) | > 100 µM (inactive) | > 100 µM (inactive) | > 100 µM (inactive) | > 100 µM (inactive) | > 100 µM (inactive) | > 100 µM (inactive) | > 100 µM (inactive) | > 100 µM (inactive) | > 100 µM (inactive) | > 100 µM (inactive) | > 100 µM (inactive) | > 100 µM (inactive) | > 100 µM (inactive) | > 100 µM (inactive) | > 100 µM (inactive) |  | > 100 µM (inactive) | > 100 µM (inactive)
COc1cccc([C@@H]2C/C(=N\NC(=O)C(=O)N[C@@H](C)c3ccccc3)c3cc4c(cc3N2)OCO4)c1 | 34.1 µM (inactive) | 30.1 µM (inactive) | 35 µM (inactive) | 67.5 µM (inactive) |  | 65.9 µM (inactive) | > 100 µM (inactive) | 36.6 µM (inactive) | > 100 µM (inactive) | 69.5 µM (inactive) | 42 µM (inactive) | > 100 µM (inactive) | 16 µM (inactive) | 74 µM (inactive) | 30.5 µM (inactive) | 23.8 µM (inactive) |  |  | 7.19 µM (inactive) | 10.5 µM (inactive)
O=C(Nc1ccc(N2C(=O)CSC2c2ccccc2O)cc1)c1ccc(N2C(=O)CSC2c2ccccc2O)cc1 (centres undefined) | 23.6 µM (inactive) | 84.7 µM (inactive) | 31.4 µM (inactive) | 44 µM (inactive) | 51.3 µM (inactive) | 79.4 µM (inactive) | > 100 µM (inactive) | 34.4 µM (inactive) | 54.5 µM (inactive) | 32.4 µM (inactive) | > 100 µM (inactive) | 74 µM (inactive) | > 100 µM (inactive) | 67.6 µM (inactive) | 57.9 µM (inactive) | 69.7 µM (inactive) | > 100 µM (inactive) | 83.8 µM (inactive) | 83.8 µM (inactive) | 
CCSC12OC3(CCCCCN3C1=O)C1C(=O)N(c3ccccc3)C(=O)C12 (centres undefined) | > 100 µM (inactive) | > 100 µM (inactive) | > 100 µM (inactive) | > 100 µM (inactive) | > 100 µM (inactive) | > 100 µM (inactive) | > 100 µM (inactive) | > 100 µM (inactive) | > 100 µM (inactive) |  | > 100 µM (inactive) | > 100 µM (inactive) | > 100 µM (inactive) | > 100 µM (inactive) |  | > 100 µM (inactive) | > 100 µM (inactive) | > 100 µM (inactive) | > 100 µM (inactive) | > 100 µM (inactive)
Oc1nc(-c2cccc(F)c2)nc2ccccc12 | 62.1 µM (inactive) | > 54.2 µM (inactive) | 19.9 µM (inactive) | > 42.2 µM (inactive) | 29.8 µM (inactive) | > 67.3 µM (inactive) | > 100 µM (inactive) | 39.4 µM (inactive) | 30.8 µM (inactive) | 22.5 µM (inactive) | > 49.9 µM (inactive) | 34.6 µM (inactive) | > 87.7 µM (inactive) | 25 µM (inactive) |  |  | > 100 µM (inactive) | 36.1 µM (inactive) | > 62.8 µM (inactive) | > 100 µM (inactive)
COc1ccccc1N1CCN(Cn2c(=O)oc3cccnc32)CC1 | > 100 µM (inactive) | > 100 µM (inactive) | > 100 µM (inactive) | > 100 µM (inactive) | > 100 µM (inactive) | > 100 µM (inactive) | > 100 µM (inactive) | > 100 µM (inactive) | > 100 µM (inactive) | > 100 µM (inactive) |  | > 100 µM (inactive) | 36.4 µM (inactive) | > 100 µM (inactive) | > 100 µM (inactive) | > 100 µM (inactive) | > 100 µM (inactive) | > 100 µM (inactive) | > 100 µM (inactive) | 
